Key:
Test in all cases: relative viability (nuclei count vs DMSO), 5 days (fraction); higher = more cells survive
[1] = compound: CN(NC(=O)CC(=O)NN(C)C(=S)c1ccccc1)C(=S)c1ccccc1 [Elesclomol] + Nc1nc2[nH]cc(CCc3ccc(C(=O)N[C@@H](CCC(=O)O)C(=O)O)cc3)c2c(=O)[nH]1 [Pemetrexed] (partner 0.2 µM)
Outline: (§1)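 Lung cancer cell lines in 1536-well plates were dosed by pin tool the day after seeding, either with one drug alone or with a fixed anchor-drug dose plus five library-drug doses (not always all listed) in √10 steps. After 5 days, cells were fixed and their nuclei stained in one step (final 0.05% Triton X-100, 1% formaldehyde, 1 ug/ml Hoechst), then counted on 4× images. Relative viability is the nuclei count in treated wells divided by that in vehicle wells. Values are medians of duplicate plates.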

[2] = compound: CN(NC(=O)CC(=O)NN(C)C(=S)c1ccccc1)C(=S)c1ccccc1 [Elesclomol] + COc1cccc2cc(-c3nc([C@H]4CC[C@H](C(=O)O)CC4)n4ncnc(N)c34)[nH]c12 [OSI-027] (partner 0.5 µM)
Outline: as §1

[3] = compound: CN(NC(=O)CC(=O)NN(C)C(=S)c1ccccc1)C(=S)c1ccccc1 [Elesclomol] + Cc1cc(Nc2cc(N3CCN(C)CC3)nc(Sc3ccc(NC(=O)C4CC4)cc3)n2)n[nH]1 [Tozasertib] (partner 0.1 µM)
Outline: as §1

[4] = compound: CN(NC(=O)CC(=O)NN(C)C(=S)c1ccccc1)C(=S)c1ccccc1 [Elesclomol] + CC(=O)c1c(C)c2cnc(Nc3ccc(N4CCNCC4)cn3)nc2n(C2CCCC2)c1=O [Palbociclib] (partner 0.5 µM)
Outline: as §1

[5] = compound: CN(NC(=O)CC(=O)NN(C)C(=S)c1ccccc1)C(=S)c1ccccc1 [Elesclomol] + CC(C)C[C@H](NC(=O)[C@H](Cc1ccccc1)NC(=O)c1cnccn1)B(O)O [Bortezomib] (partner 0.002 µM)
Outline: as §1

Cell Line | relative viability ([1]; first compound 0.003162 µM) | relative viability ([1]; first compound 0.01 µM) | relative viability ([1]; first compound 0.03162 µM) | relative viability ([1]; first compound 0.1 µM) | relative viability ([2]; first compound 0.003162 µM) | relative viability ([2]; first compound 0.01 µM) | relative viability ([2]; first compound 0.03162 µM) | relative viability ([2]; first compound 0.1 µM) | relative viability ([3]; first compound 0.003162 µM) | relative viability ([3]; first compound 0.01 µM) | relative viability ([3]; first compound 0.03162 µM) | relative viability ([3]; first compound 0.1 µM) | relative viability ([4]; first compound 0.003162 µM) | relative viability ([4]; first compound 0.01 µM) | relative viability ([4]; first compound 0.03162 µM) | relative viability ([4]; first compound 0.1 µM) | relative viability ([5]; first compound 0.003162 µM) | relative viability ([5]; first compound 0.01 µM) | relative viability ([5]; first compound 0.03162 µM) | relative viability ([5]; first compound 0.1 µM)
NCI-H2009 | 1.02 | 0.982 | 0.312 | 0.115 | 0.448 | 0.131 | 0.126 | 0.0949 | 0.684 | 0.219 | 0.112 | 0.0954 | 0.224 | 0.172 | 0.116 | 0.0798 | 0.929 | 0.229 | 0.115 | 0.0727
HCC-78 | 0.901 | 0.856 | 0.911 | 0.956 | 0.356 | 0.399 | 0.364 | 0.322 | 0.378 | 0.426 | 0.399 | 0.483 | 0.493 | 0.377 | 0.489 | 0.466 | 0.487 | 0.419 | 0.447 | 0.494
NCI-H2170 | 0.28 | 0.28 | 0.27 | 0.26 | 0.793 | 0.577 | 0.739 | 0.583 | 0.715 | 0.641 | 0.703 | 0.491 | 0.396 | 0.358 | 0.358 | 0.29 | – | – | – | –
NCI-H1793 | 0.833 | 0.643 | 0.855 | 0.102 | 0.276 | 0.197 | 0.262 | 0.228 | 0.356 | 0.286 | 0.348 | 0.132 | 0.3 | 0.297 | 0.247 | 0.123 | – | – | – | –
HCC-366 | 0.167 | 0.156 | 0.116 | 0.0342 | 1.05 | 0.139 | 0.823 | 0.0338 | 0.158 | 0.0679 | 0.0952 | 0.0212 | 0.393 | 0.393 | 0.0812 | 0.0176 | 1.09 | 1.04 | 0.688 | 0.0134
NCI-H1651 | 0.638 | 0.61 | 0.535 | 0.432 | 0.523 | 0.527 | 0.259 | 0.102 | 0.6 | 0.601 | 0.116 | 0.108 | 0.509 | 0.516 | 0.532 | 0.341 | 0.859 | 0.931 | 0.872 | 0.655
LC-2-ad | 0.294 | 0.269 | 0.236 | 0.201 | 0.52 | 0.231 | 0.273 | 0.276 | 0.394 | 0.274 | 0.277 | 0.231 | 0.482 | 0.409 | 0.223 | 0.193 | 0.978 | 0.337 | 0.11 | 0.0678
HCC-827 | 0.275 | 0.272 | 0.258 | 0.246 | 0.741 | 0.758 | 0.722 | 0.532 | 0.432 | 0.4 | 0.421 | 0.355 | 0.471 | 0.436 | 0.428 | 0.626 | 1.03 | 0.998 | 0.947 | 0.999
SK-LU-1 | 1.01 | 0.889 | 0.625 | 0.521 | 0.319 | 0.271 | 0.211 | 0.0858 | 0.336 | 0.271 | 0.238 | 0.15 | 0.35 | 0.305 | 0.344 | 0.388 | 1.45 | 0.424 | 0.38 | 0.116
ABC-1 | – | – | – | – | 0.227 | 0.19 | 0.225 | 0.196 | 0.193 | 0.203 | 0.18 | 0.187 | 0.327 | 0.265 | 0.288 | 0.258 | 0.133 | 0.23 | 0.25 | 0.228
NCI-H1703 | – | – | – | – | – | – | – | – | – | – | – | – | – | – | – | – | 0.136 | 0.0882 | 0.104 | 0.12
NCI-H2342 | 0.732 | 0.634 | 0.728 | 0.705 | 0.648 | 0.583 | 0.395 | 0.301 | 0.466 | 0.476 | 0.332 | 0.324 | 0.495 | 0.489 | 0.517 | 0.411 | – | – | – | –
SW 900 | 0.495 | 0.453 | 0.289 | 0.0977 | 0.615 | 0.287 | 0.121 | 0.0545 | 0.534 | 0.3 | 0.121 | 0.146 | 0.531 | 0.453 | 0.168 | 0.0979 | – | – | – | –
NCI-H522 | 1.08 | 1.09 | 1.18 | 0.641 | 0.716 | 0.62 | 0.634 | 0.457 | 0.563 | 0.608 | 0.567 | 0.465 | 1.16 | 0.819 | 0.894 | 0.632 | – | – | – | –
NCI-H727 | – | – | – | – | 0.641 | 0.426 | 0.394 | 0.251 | 0.661 | 0.357 | 0.424 | 0.249 | 0.633 | 0.494 | 0.676 | 0.497 | 0.679 | 0.405 | 0.185 | 0.0498
NCI-H1792 | 0.79 | – | 0.793 | 0.277 | 0.724 | 0.547 | 0.67 | 0.61 | – | – | – | – | 0.544 | 0.569 | 0.607 | 0.662 | 0.894 | 0.85 | 0.968 | 0.986
IA-LM | – | – | – | – | – | – | – | – | – | – | – | – | – | – | – | – | 0.534 | 0.137 | 0.0664 | 0.0121
NCI-H358 | 0.159 | 0.123 | 0.142 | 0.133 | 0.276 | 0.116 | 0.0873 | 0.087 | 0.0718 | 0.0649 | 0.0613 | 0.0545 | 0.132 | 0.105 | 0.0798 | 0.0844 | – | – | – | –
NCI-H596 | 0.523 | 0.452 | 0.489 | 0.211 | 0.8 | 0.694 | 0.757 | 0.206 | 0.925 | 0.828 | 0.598 | 0.178 | – | – | – | – | 1 | 1.04 | 0.95 | 0.156
NCI-H1563 | 0.741 | 0.698 | 0.544 | 0.619 | 0.647 | 0.606 | 0.52 | 0.459 | – | – | – | – | – | – | – | – | 0.732 | 0.62 | 0.457 | 0.492
